# Test results taken from patent US20250195521A1 (Revolution Medicines, Inc., priority 2020, published 2025).
# Experiments:
# Type in all cases: cell-based, human
# AsPC-1 (K-Ras G12D) [1] = experiment: Potency assay: pERK; details: Homo sapiens, ASPC1, read-out: pERK EC50
# Method in brief: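 Cells plated overnight, then exposed 4 h at 37 °C to 10-point 3-fold dilutions of compound, in duplicate. pERK read by AlphaLISA SureFire Ultra p-ERK1/2 lysate assay or by In-Cell Western (pERK antibody, DRAQ5 DNA normalisation). IC50 from 4-parameter sigmoidal fit of signal vs log concentration.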
# AsPC-1 (K-Ras G12D) [2] = experiment: CellTiter-Glo cell viability assay, AsPC-1; details: Homo sapiens, ASPC1, 120 h, read-out: AsPC-1 Cell Viability IC50
# Method in brief: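 Steps: compound dispensed into wells holding cells; incubation to day 5; ~30 min room-temperature equilibration; luminescence read; sample signal divided by mean DMSO signal, times 100; four-parameter logistic curve fit.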
# NCI-H358 (K-Ras G12C) = experiment: CellTiter-Glo cell viability assay, H358; details: Homo sapiens, NCI-H358, 120 h, read-out: H358 Cell Viability IC50, K-Ras G12C, 5-day treatment
# Experimental: Note—The following protocol describes a procedure for monitoring cell viability of K-Ras mutant cancer cell lines in response to a compound of the invention. Other RAS isoforms may be employed, though the number of cells to be seeded will vary based on cell line used.
# Test compounds (132.5 nL) were directly dispensed into the assay plates containing cells. […] On day 5, assay plates and their contents were equilibrated to room temperature for approximately 30 minutes. […] Luminescence was measured using the PerkinElmer Enspire. Data were normalized by the following: (Sample signal/Avg. DMSO)*100. The data were fit using a four-parameter logistic fit.
SMILES,EC50 (AsPC-1 (K-Ras G12D) [1]) [µM],IC50 (AsPC-1 (K-Ras G12D) [2]) [nM],IC50 (NCI-H358 (K-Ras G12C)) [nM]
CCn1c(-c2cccnc2[C@H](C)OC)c2c3cc(ccc31)-c1cc(O)cc(c1)C[C@H](NC(=O)[C@H](C(C)C)N(C)C(=O)CN(C)C(=O)[C@H]1N[C@H]1C(F)(F)F)C(=O)N1CCC[C@H](N1)C(=O)OCC(C)(C)C2 [Example 259],< 5,100 to 1000,10 to 100
CCn1c(-c2cccnc2[C@H](C)OC)c2c3cc(ccc31)-c1cc(O)cc(c1)C[C@H](NC(=O)[C@H](C(C)C)N(C)C(=O)CN(C)C(=O)[C@H]1N[C@@H]1C(F)(F)F)C(=O)N1CCC[C@H](N1)C(=O)OCC(C)(C)C2 [Example 261],< 5,100 to 1000,< 10
CC[C@H]1N[C@H]1C(=O)N(C)CC(=O)N(C)[C@H](C(=O)N[C@H]1Cc2cc(O)cc(c2)-c2ccc3c(c2)c(c(-c2cccnc2[C@H](C)OC)n3CC)CC(C)(C)COC(=O)[C@@H]2CCCN(N2)C1=O)C(C)C [Example 262],< 5,100 to 1000,10 to 100
CC[C@@H]1N[C@@H]1C(=O)N(C)CC(=O)N(C)[C@H](C(=O)N[C@H]1Cc2cc(O)cc(c2)-c2ccc3c(c2)c(c(-c2cccnc2[C@H](C)OC)n3CC)CC(C)(C)COC(=O)[C@@H]2CCCN(N2)C1=O)C(C)C [Example 263],< 5,100 to 1000,10 to 100
CCn1c(-c2cccnc2[C@H](C)OC)c2c3cc(ccc31)-c1cc(O)cc(c1)C[C@H](NC(=O)[C@H](C(C)C)N(C)C(=O)CN(C)C(=O)[C@@H]1N[C@@H]1C(C)C)C(=O)N1CCC[C@H](N1)C(=O)OCC(C)(C)C2 [Example 264],< 5,100 to 1000,10 to 100
CCn1c(-c2cccnc2[C@H](C)OC)c2c3cc(ccc31)-c1cc(O)cc(c1)C[C@H](NC(=O)[C@H](C(C)C)N(C)C(=O)CN(C)C(=O)[C@H]1N[C@H]1C(C)C)C(=O)N1CCC[C@H](N1)C(=O)OCC(C)(C)C2 [Example 265],< 5,100 to 1000,10 to 100
CCn1c(-c2cccnc2[C@H](C)OC)c2c3cc(ccc31)-c1cc(O)cc(c1)C[C@H](NC(=O)[C@H](C(C)C)N(C)C(=O)CN(C)C(=O)[C@H]1CN1CC(=O)N(C)C)C(=O)N1CCC[C@H](N1)C(=O)OCC(C)(C)C2 (stereo partly drawn) [Example 270],< 5,100 to 1000,10 to 100
CCn1c(-c2cccnc2[C@H](C)OC)c2c3cc(ccc31)-c1cc(O)cc(c1)C[C@H](NC(=O)[C@H](C(C)C)N(C)C(=O)CN(C)C(=O)[C@H]1CN1CCCC#N)C(=O)N1CCC[C@H](N1)C(=O)OCC(C)(C)C2 (stereo partly drawn) [Example 273],< 5,100 to 1000,< 10
CCn1c(-c2cccnc2[C@H](C)OC)c2c3cc(ccc31)-c1cc(O)cc(c1)C[C@H](NC(=O)[C@H](C(C)C)N(C)C(=O)CN(C)C(=O)[C@@H]1CN1CCCC#N)C(=O)N1CCC[C@H](N1)C(=O)OCC(C)(C)C2 (stereo partly drawn) [Example 274],< 5,100 to 1000,< 10
CCn1c(-c2cccnc2[C@H](C)OC)c2c3cc(ccc31)-c1cc(O)cc(c1)C[C@H](NC(=O)[C@H](C(C)C)N(C)C(=O)CN(C)C(=O)[C@@H]1CN1C1COC1)C(=O)N1CCC[C@H](N1)C(=O)OCC(C)(C)C2 (stereo partly drawn) [Example 276],< 5,1000 to 10000,10 to 100
CCn1c(-c2cccnc2[C@H](C)OC)c2c3cc(ccc31)-c1cc(O)cc(c1)C[C@H](NC(=O)[C@H](C(C)C)N(C)C(=O)CN(C)C(=O)[C@H]1CN1CC1COC1)C(=O)N1CCC[C@H](N1)C(=O)OCC(C)(C)C2 (stereo partly drawn) [Example 277],< 5,100 to 1000,10 to 100
CCn1c(-c2cccnc2[C@H](C)OC)c2c3cc(ccc31)-c1cc(O)cc(c1)C[C@H](NC(=O)[C@H](C(C)C)N(C)C(=O)CN(C)C(=O)[C@H]1CN1CC1(C)COC1)C(=O)N1CCC[C@H](N1)C(=O)OCC(C)(C)C2 (stereo partly drawn) [Example 279],< 5,100 to 1000,< 10
